Results reported in ChEMBL document CHEMBL1201862, “PubChem BioAssay data set” (2004).
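All cell lines were grown in 96-well plates and treated with compound for 48 hours. Here, GI50 denotes the concentration required for 50% inhibition of growth.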 Active and inactive are the calls of the source. Rule as the data show it: active = GI50 up to about 1.1 µM and inactive = higher.

Legend:
Assay in all cases: growth of human tumour cells (NCI), 48 h
NCI-H522 = test system: NCI-H522
PC-3 = test system: PC-3
SF-539 = test system: SF-539
COLO 205 = test system: COLO 205
MDA-MB-231 = test system: MDA-MB-231
Hs-578T = test system: Hs-578T
HOP-92 = test system: HOP-92
NCI-H23 = test system: NCI-H23
MOLT-4 = test system: MOLT-4
HT-29 = test system: HT-29
SK-OV-3 = test system: SK-OV-3
NCI/ADR-RES = test system: NCI/ADR-RES
OVCAR-5 = test system: OVCAR-5
RXF 393 = test system: RXF 393
CAKI-1 = test system: CAKI-1
BT-549 = test system: BT-549
LOX IMVI = test system: LOX IMVI
HCC 2998 = test system: HCC 2998
NCI-H226 = test system: NCI-H226

Measured: GI50

CC(C)(C)c1ccc(O)c(CN(Cc2c(O)ccc3ccccc23)C2CCCCC2)c1
inactive: NCI-H522 14.8 µM | PC-3 14.5 µM | SF-539 16.4 µM | COLO 205 15.7 µM | MDA-MB-231 16.8 µM | Hs-578T 27.4 µM | HOP-92 16.4 µM | NCI-H23 16.4 µM | MOLT-4 18.6 µM | HT-29 16 µM | SK-OV-3 24.9 µM | NCI/ADR-RES 16.3 µM | OVCAR-5 16.9 µM | RXF 393 17.5 µM | CAKI-1 15.2 µM | BT-549 19.6 µM | LOX IMVI 10.4 µM

CN(C)Cc1cc(/N=N/c2ccccc2Cl)cc(CN(C)C)c1O
inactive: NCI-H522 12.3 µM | PC-3 33.5 µM | SF-539 > 100 µM | COLO 205 20.5 µM | HCC 2998 48.2 µM | MDA-MB-231 98.4 µM | Hs-578T 28.1 µM | NCI-H226 > 100 µM | HOP-92 21.5 µM | NCI-H23 > 100 µM | MOLT-4 20.5 µM | HT-29 42.9 µM | NCI/ADR-RES 63.7 µM | OVCAR-5 46.9 µM | RXF 393 31.6 µM | CAKI-1 > 100 µM | BT-549 53.1 µM | LOX IMVI 16.9 µM

N#CCCN(CCC#N)c1ccc(C(=N/c2ccc(Cl)cc2)/N=N/c2ccccc2)cc1
inactive: NCI-H522 36.6 µM | PC-3 > 100 µM | SF-539 > 100 µM | COLO 205 48.8 µM | HCC 2998 26.6 µM | MDA-MB-231 > 100 µM | Hs-578T > 100 µM | NCI-H226 > 100 µM | HOP-92 > 100 µM | NCI-H23 54.2 µM | MOLT-4 > 100 µM | HT-29 > 100 µM | SK-OV-3 > 100 µM | NCI/ADR-RES 36.3 µM | OVCAR-5 > 100 µM | RXF 393 16.9 µM | CAKI-1 > 100 µM | BT-549 17.5 µM

O=S(=O)(O)c1ccc2c(/N=N/c3ccccc3Cl)c(O)ccc2c1
inactive: NCI-H522 > 100 µM | PC-3 > 100 µM | COLO 205 > 100 µM | MDA-MB-231 > 100 µM | Hs-578T > 100 µM | HOP-92 > 100 µM | NCI-H23 > 100 µM | MOLT-4 > 100 µM | HT-29 > 100 µM | SK-OV-3 > 100 µM | NCI/ADR-RES > 100 µM | OVCAR-5 > 100 µM | RXF 393 > 100 µM | CAKI-1 > 100 µM | BT-549 > 100 µM | LOX IMVI > 100 µM

COC(=O)C1=C(C(=O)OC)C2(/N=C(\Nc3ccccc3)c3ccccc3)N(c3ccc(OC)cc3)CC(c3ccccc3)N2O1 (centres undefined)
inactive: NCI-H522 > 100 µM | PC-3 > 100 µM | SF-539 > 100 µM | COLO 205 > 100 µM | MDA-MB-231 > 100 µM | Hs-578T > 100 µM | HOP-92 53.6 µM | NCI-H23 > 100 µM | MOLT-4 > 100 µM | HT-29 > 100 µM | SK-OV-3 > 100 µM | NCI/ADR-RES > 100 µM | OVCAR-5 > 100 µM | RXF 393 > 100 µM | CAKI-1 > 100 µM | BT-549 > 100 µM | LOX IMVI > 100 µM

C/C(=N\n1c(Cc2ccccc2)n[nH]c1=O)c1ccc([N+](=O)[O-])cc1
inactive: NCI-H522 > 100 µM | PC-3 > 100 µM | COLO 205 > 100 µM | MDA-MB-231 > 100 µM | Hs-578T 64.4 µM | NCI-H226 > 100 µM | HOP-92 25.6 µM | NCI-H23 > 100 µM | MOLT-4 52.8 µM | HT-29 > 100 µM | NCI/ADR-RES > 100 µM | OVCAR-5 > 100 µM | RXF 393 16.6 µM | CAKI-1 78.5 µM | BT-549 > 100 µM | LOX IMVI > 100 µM

Nc1nc(Cl)c(N)c(NCC2(CO)CCCC2)n1
inactive: NCI-H522 > 100 µM | PC-3 > 100 µM | SF-539 > 100 µM | HCC 2998 > 100 µM | MDA-MB-231 > 100 µM | Hs-578T > 100 µM | NCI-H226 > 100 µM | HOP-92 > 100 µM | MOLT-4 74.8 µM | HT-29 > 100 µM | SK-OV-3 10.4 µM | NCI/ADR-RES > 100 µM | OVCAR-5 > 100 µM | RXF 393 78.7 µM | CAKI-1 > 100 µM | BT-549 50.5 µM | LOX IMVI 97.9 µM

CCOC(=O)Nn1c(CC#N)nnc1Cc1ccccc1
inactive: NCI-H522 > 100 µM | PC-3 > 100 µM | SF-539 > 100 µM | HCC 2998 > 100 µM | MDA-MB-231 > 100 µM | Hs-578T > 100 µM | NCI-H226 > 100 µM | HOP-92 > 100 µM | NCI-H23 > 100 µM | MOLT-4 > 100 µM | HT-29 > 100 µM | NCI/ADR-RES > 100 µM | OVCAR-5 > 100 µM | RXF 393 > 100 µM | CAKI-1 > 100 µM | BT-549 > 100 µM

CCOc1ccc(C(c2c(O)c3ccccc3oc2=O)c2c(O)c3ccccc3oc2=O)cc1
inactive: NCI-H522 30.7 µM | PC-3 29.6 µM | SF-539 48 µM | COLO 205 > 100 µM | MDA-MB-231 58.5 µM | Hs-578T 37.6 µM | NCI-H226 95.9 µM | HOP-92 23.6 µM | NCI-H23 44.4 µM | MOLT-4 33.6 µM | HT-29 40.9 µM | SK-OV-3 47.4 µM | NCI/ADR-RES 98.6 µM | OVCAR-5 > 100 µM | CAKI-1 93.8 µM | BT-549 67.8 µM | LOX IMVI 66.5 µM

CC(=O)NC1C(OCc2ccccc2)OC(CO)C(O)C1OC(C)C(=O)NC(C(=O)N[C@@H](CCC(=O)NCCNCCNc1c2ccccc2nc2cccc([N+](=O)[O-])c12)C(N)=O)C(C)C (some centres undefined)
inactive: PC-3 28.4 µM | SF-539 14.9 µM | COLO 205 20.1 µM | HCC 2998 21 µM | MDA-MB-231 70.6 µM | Hs-578T > 100 µM | NCI-H226 > 100 µM | HOP-92 18.2 µM | NCI-H23 34 µM | MOLT-4 23.6 µM | SK-OV-3 > 100 µM | NCI/ADR-RES 91.6 µM | CAKI-1 30.3 µM | BT-549 > 100 µM | LOX IMVI 29.2 µM

COc1ccc(N/N=C2\CCOc3ccc(C)cc3C2=O)cc1
inactive: NCI-H522 24.7 µM | PC-3 10.6 µM | SF-539 40.6 µM | COLO 205 23.4 µM | HCC 2998 13.6 µM | MDA-MB-231 14.4 µM | Hs-578T 25.1 µM | NCI-H226 27.4 µM | HOP-92 18.1 µM | MOLT-4 11.1 µM | HT-29 7.8 µM | SK-OV-3 18.2 µM | NCI/ADR-RES 9.4 µM | OVCAR-5 91.4 µM | CAKI-1 27.9 µM | BT-549 24.1 µM | LOX IMVI 12.4 µM
